Reference: patent US20100216779A1 (GLAXOSMITHKLINE LLC, priority 2007, published 2010)

Columns and labels:
Format in all cases: cell-based
COLO205 (colon) = experiment: Inhibition of cell proliferation, CellTiter-Glo, COLO205; settings: Homo sapiens, COLO 205, 72 h
Summary of the method: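 Exponentially growing COLO205 cells in medium with 10% FBS were plated below 2000 cells/well at 37 °C, 5% CO2. Untreated wells served as controls.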

[1] = test system: NCI-H929 (multiple myeloma); experiment: Inhibition of cell proliferation, CellTiter-Glo, NCI-H929; settings: Homo sapiens, 72 h
Procedure: C. Inhibition of Cell Proliferation
Cell proliferation was measured by either CellTiter-Glo (measures cellular ATP level as a surrogate for total cell number) or by InCell analyzer (counts number of nuclei as a measure of cell number). For CellTiter-Glo assay, exponentially growing cell lines of different tumor origins, cultured in appropriate media containing 10% fetal bovine serum at 37° C. in a 5% CO2 incubator, were plated at low density (less than 2000 cells/well) in 96-well plates. Twenty four hours post-plating, cells were treated with different concentrations of test compounds ranging from 30 uM to 1.5 nM. Several wells were left untreated as a control. Seventy two hours post-treatment, cell numbers were determined using 50-100 ul per well of CellTiter-Glo (Promega #G7573). Plates were incubated at 37° C. for 30 minutes and the chemiluminescent signal was read on the Victor V or Envison 2100 reader. […]

[2] = target: T1, human IGF-1R (NIH-3T3 cells over expressing human IGF-1R) (Homo sapiens, UniProt P08069); experiment: IGF-1R cellular autophosphorylation (DELFIA); settings: IGF-1 stimulated
T1 construct: expressed in transfected cells; host or cells: NIH-3T3 (mouse fibroblasts)
T1 sequence (P08069 31-1367): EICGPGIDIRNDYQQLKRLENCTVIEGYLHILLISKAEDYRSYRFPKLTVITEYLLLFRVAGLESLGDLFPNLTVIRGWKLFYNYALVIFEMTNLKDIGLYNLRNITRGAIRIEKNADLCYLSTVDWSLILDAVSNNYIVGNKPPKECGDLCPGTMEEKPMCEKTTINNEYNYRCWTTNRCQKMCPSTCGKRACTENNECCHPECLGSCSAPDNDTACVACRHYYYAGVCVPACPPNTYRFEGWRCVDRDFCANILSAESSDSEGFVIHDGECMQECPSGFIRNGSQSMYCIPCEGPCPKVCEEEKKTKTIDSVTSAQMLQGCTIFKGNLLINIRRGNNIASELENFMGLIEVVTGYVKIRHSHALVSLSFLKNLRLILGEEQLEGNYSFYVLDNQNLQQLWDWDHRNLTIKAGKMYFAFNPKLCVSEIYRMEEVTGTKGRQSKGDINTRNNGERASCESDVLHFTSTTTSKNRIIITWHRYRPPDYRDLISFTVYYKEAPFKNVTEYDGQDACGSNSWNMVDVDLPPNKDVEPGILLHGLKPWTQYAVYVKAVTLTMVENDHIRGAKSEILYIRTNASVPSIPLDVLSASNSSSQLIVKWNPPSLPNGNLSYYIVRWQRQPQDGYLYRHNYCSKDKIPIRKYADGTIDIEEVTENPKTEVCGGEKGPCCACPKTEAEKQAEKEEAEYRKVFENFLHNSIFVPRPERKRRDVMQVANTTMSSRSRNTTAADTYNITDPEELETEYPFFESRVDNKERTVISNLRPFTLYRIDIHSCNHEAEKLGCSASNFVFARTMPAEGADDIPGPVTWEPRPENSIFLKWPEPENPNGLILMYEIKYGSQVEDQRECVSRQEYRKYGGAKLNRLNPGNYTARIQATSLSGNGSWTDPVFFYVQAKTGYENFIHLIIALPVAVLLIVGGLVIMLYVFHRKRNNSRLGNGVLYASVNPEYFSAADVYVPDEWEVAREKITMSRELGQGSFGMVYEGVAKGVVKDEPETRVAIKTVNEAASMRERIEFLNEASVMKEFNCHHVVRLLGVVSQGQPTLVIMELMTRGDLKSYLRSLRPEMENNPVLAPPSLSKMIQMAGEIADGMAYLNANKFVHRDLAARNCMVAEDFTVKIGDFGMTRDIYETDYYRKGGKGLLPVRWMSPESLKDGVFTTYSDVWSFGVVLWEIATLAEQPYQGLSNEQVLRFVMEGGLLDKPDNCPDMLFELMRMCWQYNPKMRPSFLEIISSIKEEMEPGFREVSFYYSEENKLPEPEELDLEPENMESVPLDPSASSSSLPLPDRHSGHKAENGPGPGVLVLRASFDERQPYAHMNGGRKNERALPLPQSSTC
Summary of the method: (§1)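 Receptor-overexpressing NIH-3T3, 10% FBS, 37 °C; cpd 30 uM–1.5 nM × 2 h; stim IGF-1 30 ng/mL (IGF-1R) or insulin 3 ug/mL (IR), 15 min; lysate DELFIA, Eu anti-pTyr; % of stimulated signal.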

[3] = target: T2, IR (NIH-3T3 cells over expressing human IGF-1R or IR) (Homo sapiens, UniProt P06213); experiment: IR cellular autophosphorylation (DELFIA); settings: NIH-3T3 cells over expressing IR, insulin stimulated
T2 construct: expressed in transfected cells; host or cells: NIH-3T3 (mouse fibroblasts)
T2 sequence (P06213 28-1382): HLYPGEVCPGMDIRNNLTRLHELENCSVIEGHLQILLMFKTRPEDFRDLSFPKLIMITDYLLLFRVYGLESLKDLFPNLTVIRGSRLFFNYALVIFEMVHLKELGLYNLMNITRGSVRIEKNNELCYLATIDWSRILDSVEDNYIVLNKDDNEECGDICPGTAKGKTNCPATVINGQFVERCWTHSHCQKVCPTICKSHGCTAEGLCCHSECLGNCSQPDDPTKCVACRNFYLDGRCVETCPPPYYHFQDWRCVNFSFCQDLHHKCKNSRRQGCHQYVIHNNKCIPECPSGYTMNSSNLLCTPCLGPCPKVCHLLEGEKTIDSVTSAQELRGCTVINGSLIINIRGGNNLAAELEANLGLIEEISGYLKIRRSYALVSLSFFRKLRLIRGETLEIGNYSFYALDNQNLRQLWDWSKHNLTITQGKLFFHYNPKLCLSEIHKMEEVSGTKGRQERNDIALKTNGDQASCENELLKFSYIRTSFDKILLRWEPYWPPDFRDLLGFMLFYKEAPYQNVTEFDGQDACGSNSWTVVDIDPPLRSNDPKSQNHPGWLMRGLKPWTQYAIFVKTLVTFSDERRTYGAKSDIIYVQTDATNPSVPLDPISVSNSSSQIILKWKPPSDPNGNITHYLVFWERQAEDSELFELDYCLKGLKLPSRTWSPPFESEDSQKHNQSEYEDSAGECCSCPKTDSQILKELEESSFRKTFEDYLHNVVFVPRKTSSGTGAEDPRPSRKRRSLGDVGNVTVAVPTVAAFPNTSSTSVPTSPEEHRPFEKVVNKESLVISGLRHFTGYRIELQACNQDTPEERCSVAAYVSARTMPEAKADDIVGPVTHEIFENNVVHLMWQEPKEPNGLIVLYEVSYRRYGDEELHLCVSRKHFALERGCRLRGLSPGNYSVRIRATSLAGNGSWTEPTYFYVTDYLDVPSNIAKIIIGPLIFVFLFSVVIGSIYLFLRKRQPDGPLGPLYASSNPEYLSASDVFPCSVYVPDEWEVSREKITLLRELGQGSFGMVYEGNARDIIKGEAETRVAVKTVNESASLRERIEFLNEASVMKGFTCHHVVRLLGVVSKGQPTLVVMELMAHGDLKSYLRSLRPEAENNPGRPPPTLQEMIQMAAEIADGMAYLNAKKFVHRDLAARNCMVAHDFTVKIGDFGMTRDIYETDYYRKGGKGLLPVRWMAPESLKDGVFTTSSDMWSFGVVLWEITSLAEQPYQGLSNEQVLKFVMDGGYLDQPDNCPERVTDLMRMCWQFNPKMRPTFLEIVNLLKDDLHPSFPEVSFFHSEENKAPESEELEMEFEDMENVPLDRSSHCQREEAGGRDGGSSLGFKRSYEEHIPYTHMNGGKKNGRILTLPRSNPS
Summary of the method: as §1

## COc1cc(N2CCC(CCS(C)(=O)=O)CC2)c(C)cc1Nc1nccc(-c2c(-c3ccc(OC)c(C(=O)Nc4c(F)cccc4F)c3)nc3cc(F)ccn23)n1 [Example 220, N-(2,6-difluorophenyl)-5-(7-fluoro-3-{2-[(5-methyl-2-(methyloxy)-4-{4-[2-(methylsulfonyl)ethyl]-1-piperidinyl}phenyl)amino]-4-pyrimidinyl}imidazo[1,2-a]pyridin-2-yl)-2-(methyloxy)benzamide]
COLO205 (colon)
  IC50: 250 to 1000 nM
[1]
  IC50: < 250 nM

## COc1cc(N2CCC(N3CCN(CCS(C)(=O)=O)CC3)CC2)c(C)cc1Nc1nccc(-c2c(-c3cccc(C(=O)Nc4c(F)cccc4F)c3)nc3ccccn23)n1 [Example 115, N-(2,6-difluorophenyl)-3-[3-(2-{[5-methyl-2-(methyloxy)-4-(4-{4-[2-(methylsulfonyl)ethyl]-1-piperazinyl}-1-piperidinyl)phenyl]amino]-4-pyrimidinyl)imidazo[1,2-a]pyridin-2-yl]benzamide]
COLO205 (colon)
  IC50: 250 to 1000 nM
[1]
  IC50: < 250 nM

## COc1cc(C2CCN(CCS(C)(=O)=O)CC2)ccc1Nc1nccc(-c2c(-c3ccc(OC)c(C(=O)Nc4c(F)cccc4F)c3)nc3ccccn23)n1 [Example 181, N-(2,6-difluorophenyl)-2-(methyloxy)-5-(3-{2-[(2-(methyloxy)-4-{1-[2-(methylsulfonyl)ethyl]-4-piperidinyl}phenyl)amino]-4-pyrimidinyl}imidazo[1,2-a]pyridin-2-yl)benzamide]
COLO205 (colon)
  IC50: 250 to 1000 nM
[1]
  IC50: < 250 nM

## CCOc1ccc(-c2nc3ccccn3c2-c2ccnc(Nc3ccc(C4CCN(CCS(C)(=O)=O)CC4)cc3OC)n2)cc1C(=O)Nc1c(F)cccc1F [Example 182, N-(2,6-difluorophenyl)-2-(ethyloxy)-5-(3-{2-[(2-(methyloxy)-4-{1-[2-(methylsulfonyl)ethyl]-4-piperidinyl}phenyl)amino]-4-pyrimidinyl}imidazo[1,2-a]pyridin-2-yl)benzamide]
COLO205 (colon)
  IC50: < 250 nM
[1]
  IC50: < 250 nM

## COc1cc(N2CCC(CCS(C)(=O)=O)CC2)ccc1Nc1nccc(-c2c(-c3ccc(OC)c(C(=O)Nc4c(F)cccc4F)c3)nc3cc(F)ccn23)n1 [Example 216, N-(2,6-difluorophenyl)-5-(7-fluoro-3-{2-[(2-(methyloxy)-4-{4-[2-(methylsulfonyl)ethyl]-1-piperidinyl}phenyl)amino]-4-pyrimidinyl}imidazo[1,2-a]pyridin-2-yl)-2-(methyloxy)benzamide]
COLO205 (colon)
  IC50: 250 to 1000 nM
[1]
  IC50: < 250 nM

## CCOc1cc(C2CCN(CCS(C)(=O)=O)CC2)ccc1Nc1nccc(-c2c(-c3ccc(OC(C)C)c(C(=O)Nc4c(F)cccc4F)c3)nc3ccccn23)n1 [Example 186, N-(2,6-difluorophenyl)-5-(3-{2-[(2-(ethyloxy)-4-{1-[2-(methylsulfonyl)ethyl]-4-piperidinyl}phenyl)amino]-4-pyrimidinyl}imidazo[1,2-a]pyridin-2-yl)-2-[(1-methylethyl)oxy]benzamide]
COLO205 (colon)
  IC50: < 250 nM
[1]
  IC50: < 250 nM

## COc1cc(N2CCC(N3CCCCC3)CC2)ccc1Nc1nccc(-c2c(-c3cccc(C(=O)Nc4c(F)cccc4F)c3)nc3cc(C(F)(F)F)ccn23)n1 [Example 191, 3-[3-(2-{[4-(1,4′-bipiperidin-1′-yl)-2-(methyloxy)phenyl]amino}-4-pyrimidinyl)-7-(trifluoromethyl)imidazo[1,2-a]pyridin-2-yl]-N-(2,6-difluorophenyl)benzamide]
COLO205 (colon)
  IC50: > 1000 nM
[1]
  IC50: > 1000 nM

## CCOc1cc(N2CCC(N3CCN(S(C)(=O)=O)CC3)CC2)c(CC)cc1Nc1nccc(-c2c(-c3ccc(OCC)c(C(=O)Nc4c(F)cccc4F)c3)nc3ccccn23)n1 [Example 205, N-(2,6-difluorophenyl)-5-(3-{2-[(5-ethyl-2-(ethyloxy)-4-{4-[4-(methylsulfonyl)-1-piperazinyl]-1-piperidinyl}phenyl)amino]-4-pyrimidinyl}imidazo[1,2-a]pyridin-2-yl)-2-(ethyloxy)benzamide]
COLO205 (colon)
  IC50: < 250 nM
[1]
  IC50: < 250 nM

## CCOc1cc(C2CCN(CCS(C)(=O)=O)CC2)ccc1Nc1nccc(-c2c(-c3ccc(OC)c(C(=O)Nc4c(F)cccc4F)c3)nc3ccccn23)n1 [Example 184, N-(2,6-difluorophenyl)-5-(3-{2-[(2-(ethyloxy)-4-{1-[2-(methylsulfonyl)ethyl]-4-piperidinyl}-phenyl)amino]-4-pyrimidinyl}imidazo[1,2-a]pyridin-2-yl)-2-(methyloxy)benzamide]
COLO205 (colon)
  IC50: < 250 nM
[1]
  IC50: < 250 nM

## CCOc1cc(N2CCC(CCS(C)(=O)=O)CC2)c(C)cc1Nc1nccc(-c2c(-c3ccc(OC)c(C(=O)Nc4c(F)cccc4F)c3)nc3cc(F)ccn23)n1 [Example 218, N-(2,6-difluorophenyl)-5-(3-{2-[(2-(ethyloxy)-5-methyl-4-{4-[2-(methylsulfonyl)ethyl]-1-piperidinyl}phenyl)amino]-4-pyrimidinyl}-7-fluoroimidazo[1,2-a]pyridin-2-yl)-2-(methyloxy)benzamide]
COLO205 (colon)
  IC50: 250 to 1000 nM
[1]
  IC50: < 250 nM

## COc1ccn2c(-c3ccnc(Nc4cccc(OCCN(C)C)c4)n3)c(-c3cccc(C(=O)Nc4c(F)cccc4F)c3)nc2c1 [Example 17, N-(2,6-difluorophenyl)-3-[3-{2-[(3-{[2-(dimethylamino)ethyl]oxy}phenyl)amino]-4-pyrimidinyl}-7-(methyloxy)imidazo[1,2-a]pyridin-2-yl]benzamide]
COLO205 (colon)
  IC50: 250 to 1000 nM
[2]
  IC50: 100 to 500 nM
[3]
  IC50: > 500 nM

## CCOc1cc(N2CCN(CCS(C)(=O)=O)CC2)c(C)cc1Nc1nccc(-c2c(-c3ccc(OC(C)C)c(C(=O)Nc4c(F)cccc4F)c3)nc3ccccn23)n1 [Example 249, N-(2,6-difluorophenyl)-5-(3-{2-[(2-(ethyloxy)-5-methyl-4-{4-[2-(methylsulfonyl)ethyl]-1-piperazinyl}phenyl)amino]-4-pyrimidinyl}imidazo[1,2-a]pyridin-2-yl)-2-[(1-methylethyl)oxy]benzamide]
COLO205 (colon)
  IC50: < 250 nM
[1]
  IC50: < 250 nM

## COc1cc(N2CCN(CCS(C)(=O)=O)CC2)ccc1Nc1nccc(-c2c(-c3cccc(C(=O)Nc4c(F)cccc4F)c3)nc3ccccn23)n1 [Example 136, N-(2,6-difluorophenyl)-3-(3-{2-[(2-(methyloxy)-4-{4-[2-(methylsulfonyl)ethyl]-1-piperazinyl}phenyl)amino]-4-pyrimidinyl}imidazo[1,2-a]pyridin-2-yl)benzamide]
COLO205 (colon)
  IC50: 250 to 1000 nM
[2]
  IC50: < 100 nM
[3]
  IC50: < 100 nM

## CCOc1cc(N2CCN(CCS(C)(=O)=O)CC2)c(C)cc1Nc1nccc(-c2c(-c3ccc(OC)c(C(=O)Nc4c(F)cccc4F)c3)nc3ccccn23)n1 [Example 247, N-(2,6-difluorophenyl)-5-(3-{2-[(2-(ethyloxy)-5-methyl-4-[4-[2-(methylsulfonyl)ethyl]-1-piperazinyl}phenyl)amino]-4-pyrimidinyl}imidazo[1,2-a]pyridin-2-yl)-2-(methyloxy)benzamide]
COLO205 (colon)
  IC50: < 250 nM
[1]
  IC50: < 250 nM

## COc1cc(N2CCN(C3CCN(CCS(C)(=O)=O)CC3)CC2)ccc1Nc1nccc(-c2c(-c3cccc(C(=O)Nc4c(F)cccc4F)c3)nc3ccccn23)n1 [Example 89, N-(2,6-difluorophenyl)-3-[3-(2-{[2-(methyloxy)-4-(4-{1-[2-(methylsulfonyl)ethyl]-4-piperidinyl}-1-piperazinyl)phenyl]amino}-4-pyrimidinyl)imidazo[1,2-a]pyridin-2-yl]benzamide]
COLO205 (colon)
  IC50: < 250 nM
[2]
  IC50: < 100 nM
[3]
  IC50: < 100 nM
